From patent publication US20260069539A1, “LIPIDOID COMPOUNDS AND RELATED COMPOSITIONS AND USES” (Poseida Therapeutics, Inc., priority 2023, published 2026)

Experiments:
liver cells [1] = test: In vivo LNP delivery of fLuciferase mRNA, bioluminescent imaging (BLI) at 4 hr; design: species or system BALB/C mice; settings: for Mean Luciferase Flux: 0.5 mg/kg fLuc mRNA i.v., 4 hr
Protocol: Adult female BALB/C mice (n=3/group) were intravenously administered 0.5 mg/kg of 5′-CleanCap—fLuciferase mRNA (TriLink Biotech) formulated with the LNP compositions shown in Table 6. One group of mice was treated with vehicle (PBS, Thermo Fisher Scientific, USA) as a negative control.
(§1) The location and extent of luciferase expression in treated and control mice were determined at 4 hr for mRNA and 48 hr for DNA by bioluminescent imaging (BLI) of anesthetized mice using an IVIS Lumina in vivo imaging system (Perkin Elmer) according to the manufacturer's instructions. Briefly, mice were anesthetized using isoflurane in oxygen, and placed supine on a heated stage. Mice were then administered D-luciferin (Perkin-Elmer #122799) IP, and BLI was performed.
as §1, with “hr” for “hr for mRNA and 48 hr for DNA”
as §1, with “hr” for “hr for mRNA and 48 hr for DNA”
The location and extent of luciferase expression in treated and control mice were determined at 4 hr by bioluminescent imaging (BLI) of anesthetized mice using an IVIS Lumina in vivo imaging system (Perkin Elmer) according to the manufacturer's instructions.
Briefly, mice were anesthetized using isoflurane in oxygen, and placed supine on a heated stage. Mice were then administered D-luciferin (Perkin-Elmer #122799) IP, and BLI was performed.
as §1, with “hr” for “hr for mRNA and 48 hr for DNA”

liver cells [2] = test: In vivo LNP delivery of DNA encoding firefly luciferase, bioluminescent imaging (BLI) at 48 hr; design: species or system BALB/C mice; settings: for Total Flux: Example 103, 0.5 mg/kg DNA intravenous, BLI at 48 hr; for Mean Luciferase Flux: DNA encoding firefly luciferase, 48 hr
Protocol: Adult BALB/C mice (n=3) were administered 0.5 mg/kg of DNA encoding firefly luciferase (Nature Technology Corp) formulated in a LNP composition listed in Table 4. One group of mice was treated with vehicle (PBS, Thermo Fisher Scientific, USA) as a negative control.
as §1, with “at” for “at 4 hr for mRNA and”, “DNA delivery” for “DNA”
as §1, with “at” for “at 4 hr for mRNA and”, “performed. […]” for “performed.”
Body weight loss (BWL) measurements were taken at 24 hrs post administration and luciferase expression was measured by whole body luminescence imaging (BLI) at 48 hours post-administration. […]
Luciferase expression was measured by whole body luminescence imaging (BLI) at 48 hours post-administration.

[3] = Body weight change / body weight loss 24 hours post-administration of LNP; assay type: in vivo, BALB/C mice
Protocol: In addition, the body weight of mice treated with LNP compositions of the present disclosure prepared as described in Example 77 was assessed prior to intravenous administration and 24 hours post-administration and the body weights at baseline and post-treatment were compared.
In addition, the body weight of mice treated with LNP compositions of the present disclosure was assessed prior to intravenous administration and 24 hours post-administration and the body weights at baseline and post-treatment were compared.
Body weight loss (BWL) measurements were taken at 24 hrs post administration and luciferase expression was measured by whole body luminescence imaging (BLI) at 48 hours post-administration.
(§2) Blood was drawn from control and treated mice 4 hrs post-administration for cytokine analysis, body weight loss (BWL) measurements were taken at 24 hrs post administration and luciferase expression was measured by whole body luminescence imaging (BLI) at 48 hours post-administration.

pcsk9 protein = test: Serum Pcsk9 ELISA 7 days after LNP delivery of Cas-CLOVER mRNA and pcsk9 gRNAs (in vivo gene editing); design: species or system mouse; settings: serum 7 days
Protocol: In two separate experiments, each group of adult female BALB/C mice (n=2/group) was intravenously co-administered mRNA encoding 5′-CleanCap-5MeC-Cas-CLOVER (SEQ ID NO: 5) and a pair of gRNAs (SEQ ID NOs: 6 and 7) targeted to the first exon of the mouse pcsk9 gene.
After seven days post-administration, blood samples were drawn from the subjects. Briefly, 500 μL of blood was collected after euthanasia via cardiac puncture using 2 ml syringes and 25G needles, transferred to microcentrifuge tubes, incubated at room temperature for 1 hour, and centrifuged at 1500 g for 15 minutes to separate the cellular fraction from serum. Serum fraction (200 μL) was transferred to a new tube and stored at −80C until further analysis.
Serum levels of the pcsk9 protein in the mice were measured 7 days after administration. Results are shown in Table 23 for the first experiment and Table 24 for the second experiment. Briefly, a mouse Pcsk9 ELISA kit (Biolegend) was used to determine Pcsk9 in each serum sample following manufacturer's instructions. All serum samples were assayed in triplicate and results were expressed as percentage in Pcsk9 levels compared with Pcsk9 levels of PBS-treated mice.

[4] = test system: proinflammatory cytokines IL-6, INF-G, TNF-α, MCP-1, MIP-1a/MIP-1b; test: Serum proinflammatory cytokine levels (ELISA) 4 hours after LNP administration; assay type: in vivo, BALB/C mice; settings: 0.5 mg/kg fLuc mRNA i.v., serum at 4 hours
Protocol: The levels of five proinflammatory cytokines present in serum were evaluated at 4 hours after LNP administration for each of the tested concentrations. Briefly, serum samples were prepared as described for liver enzyme analysis and the serum concentration of each cytokine was determined using commercially available ELISA kits (e.g., R&D Systems Quantikine ELISA kits). The levels of the proinflammatory cytokines interleukin-6 (IL-6), interferon gamma (INF-G), tumor necrosis factor alpha (TNF-α), monocyte chemoattractant protein-1 (MCP-1), macrophage inflammatory protein-1 alpha (MIP-1a) in mice treated with LNPs of the present disclosure compared to vehicle treated mice at 4 hours are shown in Table 18.
(§3) The levels of five proinflammatory cytokines present in serum were evaluated at 4 hours after LNP administration as described in Example 81. The levels of the proinflammatory cytokines interleukin-6 (IL-6), interferon gamma (INF-G), tumor necrosis factor alpha (TNF-a), monocyte chemoattractant protein-1 (MCP-1), macrophage inflammatory protein-1 beta (MIP-1b) in mice treated with LNPs of the present disclosure are shown in Table 35.
as §3, with “38 and Table 39.” for “35.”
as §3, with “(TNF-α),” for “(TNF-a),”, “44.” for “35.”
as §2

[5] = Table 14 experiment, LNP with 43.17 % moles of the compound (Lipid:RNA 80)
[6] = Table 14 experiment, LNP with 50 % moles of the compound (Lipid:RNA 80)
[7] = LNP with 43.17 % moles of the compound (DOPC 11.96/Chol 43.17/PEG-DMG 1.7, Lipid:DNA 80)
[8] = LNP with 50 % moles of the compound (DOPC 10/Chol 38.5/PEG-DMG 1.5, Lipid:DNA 80)
[9] = DNA LNP with 43.17 % moles of the compound
[10] = DNA LNP with 50 % moles of the compound
[11] = LNP with 40.8 (40.75) % moles Compound No. 40
[12] = LNP with 50 % moles Compound No. 40

SMILES: CCCCC[C@H]1CC[C@H](C(=O)OCC(COC(=O)CCCCCN(CCO)CCCCCC(=O)COC(COC(=O)[C@H]2CC[C@H](CCCCC)CC2)COC(=O)[C@H]2CC[C@H](CCCCC)CC2)COC(=O)[C@H]2CC[C@H](CCCCC)CC2)CC1 [COMPOUND NO. 36]
- RNA delivery potency (liver cells [1]; 0.5 mg/kg fLuciferase mRNA in LNP, BLI at 4 hr): RNA delivery potency increases with increasing number of cyclohexyl-substituted tails
- Total Flux (liver cells [1]; Example 104, experiment of Table 64, 0.5 mg/kg fLuciferase mRNA intravenous, BLI at 4 hr): 3.25E+11 p/s
- Mean Luciferase Flux (liver cells [1]; [5]): 1.31E+11 p/s
- Mean Luciferase Flux (liver cells [1]; [6]): 1.19E+11 p/s
- Total Flux (liver cells [2]; LNP with 10% DOPC): 7.52E+07 p/s
- Total Flux (liver cells [2]; LNP with 10% DSPC): 1.23E+08 p/s
- Mean Luciferase Flux (liver cells [2]; [7]): 7.99E+07 p/s
- Mean Luciferase Flux (liver cells [2]; [8]): 1.82E+08 p/s
- % body weight change [3, 9]: −4.9%
- % body weight change [3, 10]: −6.7%

SMILES: CCCCC[C@H]1CC[C@H](C(=O)OCC(COC(=O)CCCCCN(CCCO)CCCCCC(=O)COC(COC(=O)[C@H]2CC[C@H](CCCCC)CC2)COC(=O)[C@H]2CC[C@H](CCCCC)CC2)COC(=O)[C@H]2CC[C@H](CCCCC)CC2)CC1 [COMPOUND NO. 37]
- Mean Luciferase Flux (liver cells [1]; [5]): 3.49E+11 p/s
- Mean Luciferase Flux (liver cells [1]; [6]): 3.55E+11 p/s
- % Pcsk9 compared to control (pcsk9 protein; DSPC:DOPC molar ratio 5%:5% in LNP, 0.5 mg/kg, lipid:RNA 80:1): 50.4%
- % Pcsk9 compared to control (pcsk9 protein; DSPC:DOPC molar ratio 10%:0% in LNP, 0.5 mg/kg, lipid:RNA 80:1): 39.7%
- % Pcsk9 compared to control (pcsk9 protein; LNP dose 0.5 mg/kg, COMPOUND NO. 37:DOPC:Cholesterol:DMG-PEG2000 50:10:38.5:1.5, lipid:RNA 80:1): 40.6%
- % Pcsk9 compared to control (pcsk9 protein; LNP dose 1.0 mg/kg, COMPOUND NO. 37:DOPC:Cholesterol:DMG-PEG2000 50:10:38.5:1.5, lipid:RNA 80:1): 23.8%
- Total Flux (liver cells [2]; LNP with 10% DOPC): 7.64E+07 p/s
- Total Flux (liver cells [2]; LNP with 10% DSPC): 1.58E+08 p/s
- Mean Luciferase Flux (liver cells [2]; [7]): 5.80E+07 p/s
- Mean Luciferase Flux (liver cells [2]; [8]): 1.28E+08 p/s
- % body weight change [3, 9]: −6.0%
- % body weight change [3, 10]: −10.7%

SMILES: CCCCCC(=O)OCC1CCC(COC(=O)C(CCCN(CCO)CCCC(C(=O)OCC2CCC(COC(=O)CCCCC)CC2)C(=O)OCC2CCC(COC(=O)CCCCC)CC2)C(=O)OCC2CCC(COC(=O)CCCCC)CC2)CC1 (stereo not drawn) [COMPOUND NO. 40]
- IL-6 cytokine fold changes in treated mice relative to untreated mice [4, 11]: 0.4 fold
- INF-G cytokine fold changes in treated mice relative to untreated mice [4, 11]: 1.5 fold
- MCP-1 cytokine fold changes in treated mice relative to untreated mice [4, 11]: 1.6 fold
- MIP-1a cytokine fold changes in treated mice relative to untreated mice [4, 11]: 1.4 fold
- TNF-a cytokine fold changes in treated mice relative to untreated mice [4, 11]: 1.0 fold
- IL-6 cytokine fold changes in treated mice relative to untreated mice [4, 12]: 0.6 fold
- INF-G cytokine fold changes in treated mice relative to untreated mice [4, 12]: 2.0 fold
- MCP-1 cytokine fold changes in treated mice relative to untreated mice [4, 12]: 5.2 fold
- MIP-1a cytokine fold changes in treated mice relative to untreated mice [4, 12]: 3.8 fold
- TNF-a cytokine fold changes in treated mice relative to untreated mice [4, 12]: 1.1 fold
- Mean Luciferase Flux (liver cells [1]; Table 15 experiment, LNP with 40.75 % moles of the compound (Lipid:RNA 80)): 2.20E+10 p/s
- Mean Luciferase Flux (liver cells [1]; Table 15 experiment, LNP with 50 % moles of the compound (Lipid:RNA 80)): 1.02E+11 p/s
- % body weight change ([3]; LNP with 40.75 % moles of the compound, fLuc mRNA 0.5 mg/kg i.v.): −5.5%
- % body weight change ([3]; LNP with 50 % moles of the compound, fLuc mRNA 0.5 mg/kg i.v.): −2.0%
